Experimental findings from patent publication EP0491041A1, “ANTIVIRAL DRUG” (NIPPON SHINYAKU COMPANY, LIMITED, priority 1989, dated 1991) are described below.

≈ marks a conversion by molar mass, not a printed value.

For data set [1], the system named is virus. The experiment in a line: Antiviral action test: screening by inhibition of cell degeneration effect (CPE) in virus-infected HeLa cells. The format is cell-based. The note with it: amount of added drug whereby the CPE became 50%, M.O.I = 0.002, culture for three days. As for the experimental part: HeLa cells were subjected to subcultured by monolayer culture (Eagle's MEM-10% CS) and infected as M.O.I. (multiplicity of infection) = 0.01.
On the first day, HeLa cells were spread in a 75 cm³ flask and cultured on a one-day growth medium (Eagle's MEM-10% CS). On the second day, old medium was removed after confirming the formation of cell sheet, then M.O.I was made 0.01 PFU/cell and 0.5 ml of virus solution was added. The original virus solution was diluted with PBS-3% FCS solution. Operation of the virus inoculation was conducted by tilting for 1 hour at room temperature. After virus was inoculated on the cells, the virus-inoculated solution was removed, washed twice with 10 ml PBS and the residual virus solution was removed. Then 15 ml of maintenance medium (Eagle's MEM-1% CS) was added and cultured at 37°C for 2 days. The cells were observed from time to time and the culture was continued until cell fusion and cell rounding were confirmed. After the culture, medium was recovered which was used as a virus solution and was stored at -20°C until actual use.
The 78 cm³ flask containing HeLa cells which were subjected to a monolayer maintenance subculture was taken out, the old medium was discarded, 2-3 ml of 0.25% trypsine (Difco = 1:250)-0.02% EDTA/PBS(-) solution was added, tilted for a few seconds, the trypsine solution was removed and warmed at 37°C for 5 minutes. Then fresh medium was added, pipetted with a Komagome pipette and the cells were homogeneously dispersed.
Cells were counted using a cytometer, then fresh medium was added, diluted to make the cell concentration 5 x 10⁵ cells/ml, 2 ml of that was added to a laboratory dish of 35 mm diameter and cultured in a CO₂-incubator at 37°C for one day to prepare cell sheet.
The virus solution was diluted by a diluting solution to make diluted solutions of ten-times difference or step. The laboratory dish wherein HeLa cells were cultured on the previous day was taken out from the incubator, old medium was discarded and the cells were washed with each 2 ml of PBS twice. Properly diluted virus solution (0.2 ml) was added to each laboratory dish, subjected to a tilting at room temperature for 60 minutes immediately and virus was inoculated. Then the virus solution was removed, each 2 ml of 0.5% methylcellulose/Eagle's MEM-1% CS was added and cultured in a CO₂ incubator for 4 days.
The cultured laboratory dish was taken out from the CO₂-incubator and methylcellulose medium was removed. Then cells were washed with 2 ml of PDS, 2 ml of methanol was added, allowed to stand for 10 minutes and cells were immobilized and, at the same time, virus was sterilized. Hematoxylin dyeing solution (2 ml) was added to the laboratory dish which was immobilized with methanol, allowed to stand for about 10 minutes, washed with water and air-dried at room temperature. Since the cells destructed with virus were not dyed, plaque area was noted as a void and the plaque numbers were counted whereby virus value (PFU/ml) (Plaque forming units/ml) was measured.
HeLa cells during the subculture were dispersed with trypsine liquid-EDTA solution, 5 x 10⁵ cells/pore were embedded on a plate having 24 pores and cultured overnight at 37°C in a CO₂-incubator to prepare cell sheet.
As mentioned above, old medium was discarded, the cells were washed with PBS, the virus solution was diluted to make M.O.I = 0.002, 0.1 ml of it was added to each pore, subjected to a tilting at room temperature for 60 minutes and virus was inoculated to the cell.
Virus solution was removed from the cells after inoculation of virus, the cells were washed with 2 ml of PBS, each 1 ml of maintenance medium was added to each pore, then each 10 µl of the drug was added and the cells were cultured in a CO₂-incubator. Culture was conducted for three days.
The cells on the plate were observed under an invert microscope. Cell degeneration effect (CPE) was observed as cell fusion and making the cells round. […]

Data set [2] can be described thus: Acute toxicity test in mice. The format is in vivo. Conditions: male mice, ddY strain, observation for one week. As for the experimental part: Four male mice (ddY strain; six weeks age) were used for each drug tested.
In the intraperitoneal administration, each drug was suspended in 0.5% CMC-physiological saline solution and 0.1 ml (per 10 g body weight of mouse) of the suspension was intraperitoneally given to mouse. In the case of oral administration, each drug was suspended in 0.5% CMC-physiological saline solution and 0.2 ml (per 10 g body weight of mouse) of the suspension was given orally. Observation was started soon after administration and, after observation for one week, the mice were killed by chloroform and subjected to autopsied. LD₅₀ of each drug tested was given in the following tables wherefrom it is clear that the compounds of the present invention are safe.

With `COc1ccc(C(C)=CCN2C[C@H](O)[C@@H](O)[C@H](O)[C@H]2CO)cc1` [Compound No. 103, N-(magga-Methyl-4-methoxycinnamyl)moranoline], in data set [1], the “EC50 (50% CPE inhibition)” value was found to be 30 µg/mL (≈ 92.8 µM). For the same compound, the “L D ₅₀” value in data set [2] (Intraperitoneal Administration) is given as above 300 mg/kg; in data set [2] (Oral Administration) it was > 5,000 mg/kg.
Turning to `CC(=CCN1C[C@H](O)[C@@H](O)[C@H](O)[C@H]1CO)c1ccc(C)cc1` [Compound No. 104, N-(gamma-Methyl-4-methylcinnamyl)moranoline], in data set [1], the “EC50 (50% CPE inhibition)” value was found to be 10 µg/mL (≈ 32.5 µM). The “L D ₅₀” value in data set [2] (Intraperitoneal Administration) was above 300 mg/kg; in data set [2] (Oral Administration), > 5,000 mg/kg.
For `CC(=CCCN1C[C@H](O)[C@@H](O)[C@H](O)[C@H]1CO)c1ccc(Oc2ccccc2)cc1` [Compound No. 115, N-[4-(4-Phenoxyphenyl)-3-pentenyl]moranoline], in that order: 1 µg/mL (≈ 2.5 µM), above 300 mg/kg and > 5,000 mg/kg.
For `OC[C@@H]1[C@@H](O)[C@H](O)[C@@H](O)CN1CCCCOc1ccc(Cl)cc1` [Compound No. 141, N-[4-(4-Chlorophenoxy)butyl]moranoline], in that order: 1 µg/mL (≈ 2.89 µM), above 300 mg/kg and > 5,000 mg/kg.
`OC[C@@H]1[C@@H](O)[C@H](O)[C@@H](O)CN1CCCCc1ccc(Oc2ccccc2)cc1` [Compound No. 205, N-[4-(4-Phenoxyphenyl)butyl]moranoline]: the figures for the “L D ₅₀” value in data set [2] (Intraperitoneal Administration) and in data set [2] (Oral Administration) were above 300 mg/kg and > 5,000 mg/kg, respectively.
